Source: ChEMBL document CHEMBL4507280 (2021)

Key:
[1] = target: Ribosomal protein S6 kinase alpha-3 (Homo sapiens) (UniProt P51812); conditions: Compound concentration 1000.0 nM
[2] = target: Ephrin type-A receptor 7 (Homo sapiens) (UniProt Q15375); conditions: Compound concentration 1000.0 nM
[3] = target: Calcium/calmodulin-dependent protein kinase type II subunit beta (Homo sapiens) (UniProt Q13554); conditions: Compound concentration 1000.0 nM
[4] = target: Serine/threonine-protein kinase ULK2 (Homo sapiens) (UniProt Q8IYT8); conditions: Compound concentration 1000.0 nM
[5] = target: Casein kinase I isoform alpha (Homo sapiens) (UniProt P48729); conditions: Compound concentration 1000.0 nM
[6] = test system: Receptor-type tyrosine-protein kinase FLT3 (Homo sapiens), P36888 [D835Y]; conditions: Compound concentration 1000.0 nM
[7] = target: Calcium/calmodulin-dependent protein kinase type 1 (Homo sapiens) (UniProt Q14012); conditions: Compound concentration 1000.0 nM
[8] = target: Activin receptor type-2B (Homo sapiens) (UniProt Q13705); conditions: Compound concentration 1000.0 nM
[9] = target: Insulin receptor (Homo sapiens) (UniProt P06213); conditions: Compound concentration 1000.0 nM
[10] = target: Misshapen-like kinase 1 (Homo sapiens) (UniProt Q8N4C8); conditions: Compound concentration 1000.0 nM
[11] = target: Serine/threonine-protein kinase PAK 2 (Homo sapiens) (UniProt Q13177); conditions: Compound concentration 1000.0 nM
[12] = target: Serine/threonine-protein kinase/endoribonuclease IRE1 (Homo sapiens) (UniProt O75460); conditions: Compound concentration 1000.0 nM
[13] = target: Eukaryotic translation initiation factor 2-alpha kinase 1 (Homo sapiens) (UniProt Q9BQI3); conditions: Compound concentration 1000.0 nM
[14] = test system: Phosphatidylinositol 4,5-bisphosphate 3-kinase catalytic subunit alpha isoform (Homo sapiens), P42336 [I800L]; conditions: Compound concentration 1000.0 nM
[15] = test system: Phosphatidylinositol 4,5-bisphosphate 3-kinase catalytic subunit alpha isoform (Homo sapiens), P42336 [E545K]; conditions: Compound concentration 1000.0 nM
[16] = target: Tyrosine-protein kinase receptor Tie-1 (Homo sapiens) (UniProt P35590); conditions: Compound concentration 1000.0 nM
[17] = target: Serine/threonine-protein kinase 10 (Homo sapiens) (UniProt O94804); conditions: Compound concentration 1000.0 nM
[18] = target: Mitogen-activated protein kinase kinase kinase 9 (Homo sapiens) (UniProt P80192); conditions: Compound concentration 1000.0 nM
[19] = target: Cyclin-dependent kinase 11A (Homo sapiens) (UniProt Q9UQ88); conditions: Compound concentration 1000.0 nM
[20] = target: BMP-2-inducible protein kinase (Homo sapiens) (UniProt Q9NSY1); conditions: Compound concentration 1000.0 nM
[21] = target: Serine/threonine-protein kinase Sgk3 (Homo sapiens) (UniProt Q96BR1); conditions: Compound concentration 1000.0 nM
[22] = test system: Mast/stem cell growth factor receptor Kit (Homo sapiens), P10721 [V559D,V654A]; conditions: Compound concentration 1000.0 nM
[23] = target: Serine/threonine-protein kinase 25 (Homo sapiens) (UniProt O00506); conditions: Compound concentration 1000.0 nM
[24] = test system: Phosphatidylinositol 4,5-bisphosphate 3-kinase catalytic subunit alpha isoform (Homo sapiens), P42336 [E545A]; conditions: Compound concentration 1000.0 nM
[25] = target: Phosphatidylinositol 5-phosphate 4-kinase type-2 beta (Homo sapiens) (UniProt P78356); conditions: Compound concentration 1000.0 nM
[26] = target: Macrophage colony-stimulating factor 1 receptor (Homo sapiens) (UniProt P07333); conditions: Compound concentration 1000.0 nM
[27] = target: Mast/stem cell growth factor receptor Kit (Homo sapiens) (UniProt P10721); conditions: Compound concentration 1000.0 nM
[28] = test system: Leucine-rich repeat serine/threonine-protein kinase 2 (Homo sapiens), Q5S007 [G2019S]; conditions: Compound concentration 1000.0 nM
[29] = target: Mitogen-activated protein kinase kinase kinase 14 (Homo sapiens) (UniProt Q99558); conditions: Compound concentration 1000.0 nM
[30] = target: SNF-related serine/threonine-protein kinase (Homo sapiens) (UniProt Q9NRH2); conditions: Compound concentration 1000.0 nM
[31] = target: Fibroblast growth factor receptor 2 (Homo sapiens) (UniProt P21802); conditions: Compound concentration 1000.0 nM
[32] = target: GABA-A receptor; anion channel (Rattus norvegicus) (UniProt O09028+P15431+P18506+P18508+P19969+P20236+P23574+P23576+P28471+P28473+P30191+P62813+P63079+P63138+Q91ZM7+Q9ES14); conditions: Compound concentration 10.0 uM
[33] = target: Cyclin-dependent kinase 11B (Homo sapiens) (UniProt P21127); conditions: Compound concentration 1000.0 nM
[34] = target: Mitogen-activated protein kinase 11 (Homo sapiens) (UniProt Q15759); conditions: Compound concentration 1000.0 nM
[35] = target: Myosin light chain kinase, smooth muscle (Homo sapiens) (UniProt Q15746); conditions: Compound concentration 1000.0 nM
[36] = test system: Receptor-type tyrosine-protein kinase FLT3 (Homo sapiens), P36888 [D835H]; conditions: Compound concentration 1000.0 nM
[37] = target: Ephrin type-A receptor 3 (Homo sapiens) (UniProt P29320); conditions: Compound concentration 1000.0 nM
[38] = target: Bone morphogenetic protein receptor type-1A (Homo sapiens) (UniProt P36894); conditions: Compound concentration 1000.0 nM
[39] = target: Insulin-like growth factor 1 receptor (Homo sapiens) (UniProt P08069); conditions: Compound concentration 1000.0 nM
[40] = target: D(1B) dopamine receptor (Homo sapiens) (UniProt P21918); conditions: Compound concentration 10.0 uM
[41] = target: Wee1-like protein kinase 2 (Homo sapiens) (UniProt P0C1S8); conditions: Compound concentration 1000.0 nM
[42] = target: Macrophage-stimulating protein receptor (Homo sapiens) (UniProt Q04912); conditions: Compound concentration 1000.0 nM
[43] = target: Myosin light chain kinase (Homo sapiens) (UniProt Q32MK0); conditions: Compound concentration 1000.0 nM

Sequence of Bone morphogenetic protein receptor type-1A (Homo sapiens) (P36894 whole entry): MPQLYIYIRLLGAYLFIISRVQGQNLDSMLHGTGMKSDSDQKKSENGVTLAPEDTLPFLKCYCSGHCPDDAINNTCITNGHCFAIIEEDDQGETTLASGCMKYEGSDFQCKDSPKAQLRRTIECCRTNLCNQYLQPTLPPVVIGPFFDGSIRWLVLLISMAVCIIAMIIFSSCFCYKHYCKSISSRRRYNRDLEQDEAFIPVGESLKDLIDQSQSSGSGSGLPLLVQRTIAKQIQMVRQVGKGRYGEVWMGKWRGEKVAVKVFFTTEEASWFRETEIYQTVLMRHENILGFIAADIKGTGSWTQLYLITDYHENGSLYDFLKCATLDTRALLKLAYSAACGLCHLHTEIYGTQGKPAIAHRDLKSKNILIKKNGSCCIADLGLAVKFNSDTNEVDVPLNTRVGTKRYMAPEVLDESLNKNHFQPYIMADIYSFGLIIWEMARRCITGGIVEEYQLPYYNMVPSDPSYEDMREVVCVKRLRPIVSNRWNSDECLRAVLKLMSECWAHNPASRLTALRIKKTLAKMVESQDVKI
Sequence of Cyclin-dependent kinase 11B (Homo sapiens) (P21127 whole entry): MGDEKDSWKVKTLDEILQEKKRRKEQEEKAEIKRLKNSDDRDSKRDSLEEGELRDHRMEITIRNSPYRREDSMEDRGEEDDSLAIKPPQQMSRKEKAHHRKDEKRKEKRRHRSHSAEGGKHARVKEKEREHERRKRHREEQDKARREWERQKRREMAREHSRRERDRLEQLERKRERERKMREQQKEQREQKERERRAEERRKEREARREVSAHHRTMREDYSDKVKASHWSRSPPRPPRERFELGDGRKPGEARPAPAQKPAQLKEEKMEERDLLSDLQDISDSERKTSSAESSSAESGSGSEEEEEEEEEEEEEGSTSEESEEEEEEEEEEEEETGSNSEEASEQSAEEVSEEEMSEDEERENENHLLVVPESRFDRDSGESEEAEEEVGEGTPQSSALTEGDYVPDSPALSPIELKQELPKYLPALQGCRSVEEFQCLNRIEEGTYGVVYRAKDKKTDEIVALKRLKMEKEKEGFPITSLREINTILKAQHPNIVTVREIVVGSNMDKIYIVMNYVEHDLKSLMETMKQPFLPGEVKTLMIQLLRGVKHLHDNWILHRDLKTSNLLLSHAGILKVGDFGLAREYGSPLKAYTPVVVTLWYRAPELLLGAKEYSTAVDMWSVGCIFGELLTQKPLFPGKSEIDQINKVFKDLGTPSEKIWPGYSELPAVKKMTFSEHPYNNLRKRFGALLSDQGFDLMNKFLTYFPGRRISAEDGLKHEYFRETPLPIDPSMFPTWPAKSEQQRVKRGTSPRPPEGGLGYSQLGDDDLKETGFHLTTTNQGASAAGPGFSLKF
Sequence of D(1B) dopamine receptor (Homo sapiens) (P21918 whole entry): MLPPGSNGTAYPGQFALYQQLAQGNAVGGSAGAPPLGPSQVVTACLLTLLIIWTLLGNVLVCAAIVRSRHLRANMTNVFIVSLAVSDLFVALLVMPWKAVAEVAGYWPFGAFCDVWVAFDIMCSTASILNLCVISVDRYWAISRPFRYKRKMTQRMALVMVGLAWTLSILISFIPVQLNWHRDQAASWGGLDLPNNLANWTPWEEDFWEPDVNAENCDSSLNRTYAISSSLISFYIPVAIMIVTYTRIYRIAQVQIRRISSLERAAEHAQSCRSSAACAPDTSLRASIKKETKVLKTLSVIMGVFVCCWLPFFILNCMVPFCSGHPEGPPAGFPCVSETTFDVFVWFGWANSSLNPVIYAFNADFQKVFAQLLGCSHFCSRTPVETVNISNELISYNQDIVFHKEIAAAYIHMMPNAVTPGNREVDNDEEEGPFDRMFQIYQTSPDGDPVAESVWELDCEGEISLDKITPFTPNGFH
Sequence of Macrophage colony-stimulating factor 1 receptor (Homo sapiens) (P07333 whole entry): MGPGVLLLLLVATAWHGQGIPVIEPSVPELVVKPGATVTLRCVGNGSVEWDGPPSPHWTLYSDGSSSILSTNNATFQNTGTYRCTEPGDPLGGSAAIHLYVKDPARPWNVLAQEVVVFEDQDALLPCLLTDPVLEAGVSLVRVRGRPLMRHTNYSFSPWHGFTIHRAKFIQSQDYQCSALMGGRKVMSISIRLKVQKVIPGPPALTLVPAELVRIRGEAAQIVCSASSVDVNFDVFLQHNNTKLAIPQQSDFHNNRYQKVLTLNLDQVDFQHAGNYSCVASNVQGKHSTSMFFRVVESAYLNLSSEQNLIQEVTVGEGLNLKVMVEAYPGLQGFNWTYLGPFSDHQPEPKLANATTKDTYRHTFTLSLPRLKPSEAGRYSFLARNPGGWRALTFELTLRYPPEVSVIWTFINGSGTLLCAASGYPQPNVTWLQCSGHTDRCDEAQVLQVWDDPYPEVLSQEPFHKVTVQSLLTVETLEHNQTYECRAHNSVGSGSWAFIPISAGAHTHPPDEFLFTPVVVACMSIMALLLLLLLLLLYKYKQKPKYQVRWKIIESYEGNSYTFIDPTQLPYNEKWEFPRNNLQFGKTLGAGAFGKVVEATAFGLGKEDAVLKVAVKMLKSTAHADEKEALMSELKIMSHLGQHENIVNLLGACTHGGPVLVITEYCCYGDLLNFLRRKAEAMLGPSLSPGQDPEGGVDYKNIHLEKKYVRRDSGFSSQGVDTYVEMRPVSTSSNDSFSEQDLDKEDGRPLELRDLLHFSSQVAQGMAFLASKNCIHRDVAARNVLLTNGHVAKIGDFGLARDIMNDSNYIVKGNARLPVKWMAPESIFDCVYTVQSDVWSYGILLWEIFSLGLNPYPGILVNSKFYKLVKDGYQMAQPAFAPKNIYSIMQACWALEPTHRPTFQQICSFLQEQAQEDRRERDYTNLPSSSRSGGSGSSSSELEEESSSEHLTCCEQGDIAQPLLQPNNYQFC
Sequence of Activin receptor type-2B (Homo sapiens) (Q13705 whole entry): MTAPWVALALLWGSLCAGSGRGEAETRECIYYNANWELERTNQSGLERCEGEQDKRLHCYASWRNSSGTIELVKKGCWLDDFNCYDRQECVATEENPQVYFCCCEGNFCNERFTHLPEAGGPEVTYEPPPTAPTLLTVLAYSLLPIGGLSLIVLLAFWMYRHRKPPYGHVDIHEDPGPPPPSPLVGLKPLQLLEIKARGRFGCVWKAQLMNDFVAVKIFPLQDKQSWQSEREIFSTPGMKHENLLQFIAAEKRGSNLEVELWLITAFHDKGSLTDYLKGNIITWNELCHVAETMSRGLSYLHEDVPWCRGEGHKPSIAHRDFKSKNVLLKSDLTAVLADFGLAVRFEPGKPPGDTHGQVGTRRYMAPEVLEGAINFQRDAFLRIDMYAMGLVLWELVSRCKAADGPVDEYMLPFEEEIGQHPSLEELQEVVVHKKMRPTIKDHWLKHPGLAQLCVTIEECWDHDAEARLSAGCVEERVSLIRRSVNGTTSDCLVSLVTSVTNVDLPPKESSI
Sequence of Calcium/calmodulin-dependent protein kinase type II subunit beta (Homo sapiens) (Q13554 whole entry): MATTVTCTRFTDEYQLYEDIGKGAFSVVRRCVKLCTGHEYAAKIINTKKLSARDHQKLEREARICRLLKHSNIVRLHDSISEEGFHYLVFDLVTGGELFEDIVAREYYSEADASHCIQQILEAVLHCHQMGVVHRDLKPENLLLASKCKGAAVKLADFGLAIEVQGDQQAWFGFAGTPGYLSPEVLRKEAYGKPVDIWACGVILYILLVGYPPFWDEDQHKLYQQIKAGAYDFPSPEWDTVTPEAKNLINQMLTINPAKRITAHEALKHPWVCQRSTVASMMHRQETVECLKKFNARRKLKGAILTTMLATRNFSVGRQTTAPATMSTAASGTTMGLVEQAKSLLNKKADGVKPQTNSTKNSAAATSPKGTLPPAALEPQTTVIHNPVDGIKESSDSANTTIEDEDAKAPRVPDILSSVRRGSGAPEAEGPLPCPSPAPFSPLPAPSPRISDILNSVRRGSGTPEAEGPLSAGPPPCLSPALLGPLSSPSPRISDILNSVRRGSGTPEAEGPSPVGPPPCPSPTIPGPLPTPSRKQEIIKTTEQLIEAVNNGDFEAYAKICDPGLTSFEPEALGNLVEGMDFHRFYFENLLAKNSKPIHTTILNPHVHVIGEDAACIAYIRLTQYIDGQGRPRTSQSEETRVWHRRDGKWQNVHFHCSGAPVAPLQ
Sequence of Mast/stem cell growth factor receptor Kit (Homo sapiens) (P10721 whole entry): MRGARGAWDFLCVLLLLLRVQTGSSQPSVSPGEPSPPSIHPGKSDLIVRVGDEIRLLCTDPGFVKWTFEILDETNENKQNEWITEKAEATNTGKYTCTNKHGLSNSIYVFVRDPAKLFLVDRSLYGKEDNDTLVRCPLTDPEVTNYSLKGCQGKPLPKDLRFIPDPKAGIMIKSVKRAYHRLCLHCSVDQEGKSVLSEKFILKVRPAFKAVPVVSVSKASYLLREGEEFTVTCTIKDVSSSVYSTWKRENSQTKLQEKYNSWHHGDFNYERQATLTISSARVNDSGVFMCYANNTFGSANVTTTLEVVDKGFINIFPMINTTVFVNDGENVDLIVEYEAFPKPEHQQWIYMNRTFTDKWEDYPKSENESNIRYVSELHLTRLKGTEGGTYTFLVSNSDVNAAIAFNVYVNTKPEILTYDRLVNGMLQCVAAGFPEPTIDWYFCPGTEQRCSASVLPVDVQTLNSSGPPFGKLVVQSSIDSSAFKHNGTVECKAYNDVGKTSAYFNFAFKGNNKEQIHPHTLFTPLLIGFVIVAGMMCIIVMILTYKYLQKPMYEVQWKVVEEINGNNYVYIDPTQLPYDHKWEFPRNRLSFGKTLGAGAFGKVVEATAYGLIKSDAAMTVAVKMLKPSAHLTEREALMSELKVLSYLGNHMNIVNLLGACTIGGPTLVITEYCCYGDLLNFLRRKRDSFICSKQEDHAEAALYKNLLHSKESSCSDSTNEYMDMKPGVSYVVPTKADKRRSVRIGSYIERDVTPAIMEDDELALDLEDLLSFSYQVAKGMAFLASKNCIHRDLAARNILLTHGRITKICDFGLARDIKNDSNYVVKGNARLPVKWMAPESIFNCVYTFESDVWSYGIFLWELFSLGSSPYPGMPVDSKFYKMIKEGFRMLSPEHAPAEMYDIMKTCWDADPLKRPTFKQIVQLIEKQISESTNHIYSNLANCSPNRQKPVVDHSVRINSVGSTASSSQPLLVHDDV
Sequence of Mast/stem cell growth factor receptor Kit (Homo sapiens), P10721 [V559D,V654A] (P10721 whole entry V559D/V654A): as the sequence (P10721 whole entry) above, with V559D, V654A counted along it

CCC(=O)N[C@H]1CC[C@@H](C(=O)N(C)c2ccc(-c3nc4ccccc4o3)cc2)C1 [BI 99179]
residual activity [1]: 88% | residual activity [2]: 97% | residual activity [3]: 94% | residual activity [4]: 75% | residual activity [5]: 82% | residual activity [6]: 100% | residual activity [7]: 95% | residual activity [8]: 100% | residual activity [9]: 91% | residual activity [10]: 89% | residual activity [11]: 100% | residual activity [12]: 91% | residual activity [13]: 93% | residual activity [14]: 63% | residual activity [15]: 74% | residual activity [16]: 100% | residual activity [17]: 100% | residual activity [18]: 100% | residual activity [19]: 97% | residual activity [20]: 91% | residual activity [21]: 66% | residual activity [22]: 89% | residual activity [23]: 100% | residual activity [24]: 90% | residual activity [25]: 54% | residual activity [26]: 93% | residual activity [27]: 84% | residual activity [28]: 100% | residual activity [29]: 92% | residual activity [30]: 100% | residual activity [31]: 91% | inhibition [32]: 21.1% | residual activity [33]: 99% | residual activity [34]: 82% | residual activity [35]: 69% | residual activity [36]: 95% | residual activity [37]: 100% | residual activity [38]: 88% | residual activity [39]: 100% | inhibition [40]: -9.45% | residual activity [41]: 96% | residual activity [42]: 87% | residual activity [43]: 97%

CCC(=O)N[C@@H]1CC[C@H](C(=O)N(C)c2ccc(-c3nc4ccccc4o3)cc2)C1 [BI 99990]
residual activity [1]: 91% | residual activity [2]: 100% | residual activity [3]: 100% | residual activity [4]: 100% | residual activity [5]: 100% | residual activity [6]: 100% | residual activity [7]: 100% | residual activity [8]: 96% | residual activity [9]: 93% | residual activity [10]: 96% | residual activity [11]: 86% | residual activity [12]: 100% | residual activity [13]: 88% | residual activity [14]: 100% | residual activity [15]: 75% | residual activity [16]: 95% | residual activity [17]: 89% | residual activity [18]: 100% | residual activity [19]: 100% | residual activity [20]: 100% | residual activity [21]: 100% | residual activity [22]: 100% | residual activity [23]: 100% | residual activity [24]: 77% | residual activity [25]: 45% | residual activity [26]: 88% | residual activity [27]: 93% | residual activity [28]: 100% | residual activity [29]: 100% | residual activity [30]: 100% | residual activity [31]: 86% | inhibition [32]: 0.94% | residual activity [33]: 100% | residual activity [34]: 83% | residual activity [35]: 62% | residual activity [36]: 100% | residual activity [37]: 100% | residual activity [38]: 96% | residual activity [39]: 100% | inhibition [40]: 4.47% | residual activity [41]: 100% | residual activity [42]: 100% | residual activity [43]: 100%
